Measurements as given in US20250109112A1, “HERBICIDAL COMPOUNDS” (SYNGENTA CROP PROTECTION AG, priority 2022, published 2025).

Legend:
Type in all cases: in vivo
Conditions in all cases: 250 g/ha, evaluated after 13 days
[1] = tested on: Echinochloa crus-galli (ECHCG); experiment: Pre-emergence biological efficacy, ECHCG
Protocol: (§1) Seeds of weeds and/or crops were sown in standard soil in pots (Amaranthus palmeri (AMAPA), Lolium perenne (LOLPE), Euphorbia heterophylla (EPHHL), Ipomoea hederacea (IPOHE), Setaria faberi (SETFA), Echinochloa crus-galli (ECHCG)). After cultivation for one day under controlled conditions in a glasshouse (at 24/19° C., day/night; 16 hours light), the plants were sprayed with an aqueous spray solution derived from the formulation of the technical active ingredient in a small amount of acetone and a special solvent and emulsifier mixture referred to as IF50 (11.12% Emulsogen EL360 TM+44.44% N-methylpyrrolidone+44.44% Dowanol DPM glycol ether), to create a 50 g/l solution which was then diluted using 0.2% Genapol XO80 as diluent to give the desired final dose of test compound.
(§2) The test plants were then grown under controlled conditions in the glasshouse (at 24/18° C., day/night; 15 hours light; 50% humidity) and watered twice daily. After 13 days the test was evaluated (100=total damage to plant; 0=no damage to plant).

Setaria faberi (SETFA) [2] = experiment: Post-emergence biological efficacy, SETFA
Protocol: as §1, with “Chenopodium album (CHEAL),” for “Lolium perenne (LOLPE),”, “(IPOHE), Eleusine indica (ELEIN), Lolium perenne (LOLPE), Digitaria sanguinalis (DIGSA),” for “(IPOHE),”, “14 days” for “one day”
as §2

[3] = tested on: Amaranthus palmeri (AMAPA); experiment: Post-emergence biological efficacy, AMAPA
Protocol: as §1, with “Chenopodium album (CHEAL),” for “Lolium perenne (LOLPE),”, “(IPOHE), Eleusine indica (ELEIN), Lolium perenne (LOLPE), Digitaria sanguinalis (DIGSA),” for “(IPOHE),”, “14 days” for “one day”
as §2

[4] = tested on: Digitaria sanguinalis (DIGSA); experiment: Post-emergence biological efficacy, DIGSA
Protocol: as §1, with “Chenopodium album (CHEAL),” for “Lolium perenne (LOLPE),”, “(IPOHE), Eleusine indica (ELEIN), Lolium perenne (LOLPE), Digitaria sanguinalis (DIGSA),” for “(IPOHE),”, “14 days” for “one day”
as §2

Eleusine indica (ELEIN) = experiment: Post-emergence biological efficacy, ELEIN
Protocol: as §1, with “Chenopodium album (CHEAL),” for “Lolium perenne (LOLPE),”, “(IPOHE), Eleusine indica (ELEIN), Lolium perenne (LOLPE), Digitaria sanguinalis (DIGSA),” for “(IPOHE),”, “14 days” for “one day”
as §2

[5] = tested on: Echinochloa crus-galli (ECHCG); experiment: Post-emergence biological efficacy, ECHCG
Protocol: as §1, with “Chenopodium album (CHEAL),” for “Lolium perenne (LOLPE),”, “(IPOHE), Eleusine indica (ELEIN), Lolium perenne (LOLPE), Digitaria sanguinalis (DIGSA),” for “(IPOHE),”, “14 days” for “one day”
as §2

Setaria faberi (SETFA) [6] = experiment: Pre-emergence biological efficacy, SETFA
Protocol: as §1, §2

[7] = tested on: Euphorbia heterophylla (EPHHL); experiment: Post-emergence biological efficacy, EPHHL
Protocol: as §1, with “Chenopodium album (CHEAL),” for “Lolium perenne (LOLPE),”, “(IPOHE), Eleusine indica (ELEIN), Lolium perenne (LOLPE), Digitaria sanguinalis (DIGSA),” for “(IPOHE),”, “14 days” for “one day”
as §2

[8] = tested on: Ipomoea hederacea (IPOHE); experiment: Pre-emergence biological efficacy, IPOHE
Protocol: as §1, §2

[9] = tested on: Ipomoea hederacea (IPOHE); experiment: Post-emergence biological efficacy, IPOHE
Protocol: as §1, with “Chenopodium album (CHEAL),” for “Lolium perenne (LOLPE),”, “(IPOHE), Eleusine indica (ELEIN), Lolium perenne (LOLPE), Digitaria sanguinalis (DIGSA),” for “(IPOHE),”, “14 days” for “one day”
as §2

[10] = tested on: Euphorbia heterophylla (EPHHL); experiment: Pre-emergence biological efficacy, EPHHL
Protocol: as §1, §2

[11] = tested on: Amaranthus palmeri (AMAPA); experiment: Pre-emergence biological efficacy, AMAPA
Protocol: as §1, §2

Lolium perenne (LOLPE) [12] = experiment: Post-emergence biological efficacy, LOLPE
Protocol: as §1, with “Chenopodium album (CHEAL),” for “Lolium perenne (LOLPE),”, “(IPOHE), Eleusine indica (ELEIN), Lolium perenne (LOLPE), Digitaria sanguinalis (DIGSA),” for “(IPOHE),”, “14 days” for “one day”
as §2

Lolium perenne (LOLPE) [13] = experiment: Pre-emergence biological efficacy, LOLPE
Protocol: as §1, §2

[14] = tested on: Chenopodium album (CHEAL); experiment: Post-emergence biological efficacy, CHEAL
Protocol: as §1, with “Chenopodium album (CHEAL),” for “Lolium perenne (LOLPE),”, “(IPOHE), Eleusine indica (ELEIN), Lolium perenne (LOLPE), Digitaria sanguinalis (DIGSA),” for “(IPOHE),”, “14 days” for “one day”
as §2

| SMILES | damage to plant (100=total damage; 0=no damage), ECHCG [1] | damage to plant (100=total damage; 0=no damage), SETFA (Setaria faberi (SETFA) [2]) | damage to plant (100=total damage; 0=no damage), AMAPA [3] | damage to plant (100=total damage; 0=no damage), DIGSA [4] | damage to plant (100=total damage; 0=no damage), ELEIN (Eleusine indica (ELEIN)) | damage to plant (100=total damage; 0=no damage), ECHCG [5] | damage to plant (100=total damage; 0=no damage), SETFA (Setaria faberi (SETFA) [6]) | damage to plant (100=total damage; 0=no damage), EPHHL [7] | damage to plant (100=total damage; 0=no damage), IPOHE [8] | damage to plant (100=total damage; 0=no damage), IPOHE [9] | damage to plant (100=total damage; 0=no damage), EPHHL [10] | damage to plant (100=total damage; 0=no damage), AMAPA [11] | damage to plant (100=total damage; 0=no damage), LOLPE (Lolium perenne (LOLPE) [12]) | damage to plant (100=total damage; 0=no damage), LOLPE (Lolium perenne (LOLPE) [13]) | damage to plant (100=total damage; 0=no damage), CHEAL [14] |
| --- | --- | --- | --- | --- | --- | --- | --- | --- | --- | --- | --- | --- | --- | --- | --- |
| COC(=O)CCOC(=O)C(C)Sc1cc(-n2c(=O)n(C)c(=S)n(C)c2=O)c(F)cc1Cl (stereo not drawn) [Compound 9-245, (3-methoxy-3-oxo-propyl) 2-[2-chloro-5-(3,5-dimethyl-2,6-dioxo-4-thioxo-1,3,5-triazinan-1-yl)-4-fluoro-phenyl]sulfanylpropanoate] | 80 | 40 | 100 | 30 | 80 | 70 | 100 | 90 | 90 | 100 | 100 | 100 | 100 | 80 | 100 |
| COC(=O)CCNC(=O)C(C)Sc1cc(-n2c(=O)n(C)c(=S)n(C)c2=O)c(F)cc1Cl (stereo not drawn) [Compound 9-272, methyl 3-[2-[2-chloro-5-(3,5-dimethyl-2,6-dioxo-4-thioxo-1,3,5-triazinan-1-yl)-4-fluoro-phenyl]sulfanylpropanoylamino]propanoate] | 80 | 90 | 80 | 70 | 80 | 40 | 100 | 90 | 100 | 100 | 100 | 100 | 100 | 90 | 90 |
